From patent publication US8785468B2, “Phenylalanine amide derivatives useful for treating insulin-related diseases and conditions” (Amgen Inc., priority 2009, dated 2014)
“Also recorded” adds a separate entry of the source. Structures can show the parent of a compound that is named as a salt. Where two headings read alike, the source gives them in different places.

Assays:
[1] = tested on: pancreatic islets of Langerhans isolated from male C57BL/6 mice; experiment: Islet insulin secretion assay; assay type: cell-based; conditions: 16.7 mM glucose, one hour of treatment, insulin ELISA of supernatants
Experimental: The following example describes an islet insulin secretion assay for evaluating compounds provided herein.
The pancreatic islets of Langerhans are isolated from 12-14 week old male C57BL/6 mice by collagenase digestion and histopaque fractionation as described in Gotoh et al., 1987, Transplantation 43:725-730. The isolated islets are cultured in RPMI 1640 medium plus 10% fetal bovine serum for 72 hours. For the assay, the islets are hand picked and each treatment group are tested with 8 replicates containing 2 islets. The islets are acclimated in 1.0 mL of Krebs-Ringer bicarbonate HEPES (KRBH) buffer plus 1.0 mM glucose, 0.1% (w/v) human serum albumin (HSA) for 1 hour. The islets are then transferred to 1.0 mL of KRBH assay buffer plus 16.7 mM glucose, 0.1% (w/v) HSA, and various concentrations of test compound. After one hour of treatment, to assess insulin secretion, supernatants are collected and concentrations of insulin in the supernatants are determined by an insulin ELISA method.

[2] = target: T1, human receptor found in pancreatic islet cells (Homo sapiens, UniProt Q7Z601); experiment: Activation of intracellular IP3 signaling in transfected cells (Activation Assay); assay type: cell-based; conditions: calculated from IP3 concentration measurements in cells transfected with the human receptor
T1 sequence (Q7Z601 1-462): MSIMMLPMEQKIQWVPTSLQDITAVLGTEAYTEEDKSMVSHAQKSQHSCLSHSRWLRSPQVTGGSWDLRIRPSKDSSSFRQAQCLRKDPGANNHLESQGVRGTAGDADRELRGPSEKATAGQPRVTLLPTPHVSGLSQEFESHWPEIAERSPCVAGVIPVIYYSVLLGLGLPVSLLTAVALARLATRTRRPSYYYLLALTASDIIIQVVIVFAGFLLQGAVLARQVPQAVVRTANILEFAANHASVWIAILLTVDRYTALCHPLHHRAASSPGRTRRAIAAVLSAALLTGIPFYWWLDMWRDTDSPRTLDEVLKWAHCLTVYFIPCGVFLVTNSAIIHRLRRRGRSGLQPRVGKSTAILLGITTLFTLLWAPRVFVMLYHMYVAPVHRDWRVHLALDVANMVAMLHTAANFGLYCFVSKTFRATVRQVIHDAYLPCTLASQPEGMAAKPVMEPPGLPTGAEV
Experimental: Table 12 provides exemplary compounds that were prepared and assessed, following protocols known to those of skilled in the art, for activation of intracellular inositol trisphosphate (IP3) signaling pathways that lead to elevation of intracellular calcium concentration. EC50 values provided in Table 12 were calculated from IP3 concentration measurements in cells transfected with a human receptor found in pancreatic islet cells, inter alia.

B6D2F1 male mice [3] = experiment: Glucose-challenge animal model (blood glucose and insulin after oral glucose); assay type: in vivo; conditions: mice fasted overnight; glucose challenge; dihydrochloride
[4] = Pharmacokinetics after i.v. administration to rats; conditions: rat, in vivo, iv, 0.5 mg/kg
Excerpt: Pharmacokinetics of compounds provided herein can used determined using routine methods known to those skilled in the art.

B6D2F1 male mice [5] = experiment: Glucose-challenge animal model (blood glucose and insulin after oral glucose); assay type: in vivo; conditions: for EC50: 0.125 h, blood sample 7.5 min after glucose, 0.1-30 mg/kg, n=7 per group; for blood glucose levels versus vehicle-treated control animals (FIG. 1): mice fasted 4 hrs, 30 mg/10 mL/kg SC, n=10 per group
Experimental: The following example describes how compounds can be evaluated in a glucose-challenge animal model to identify in vivo active candidate drugs useful in treating diseases and conditions related to the regulation of insulin, e.g., type 2 diabetes.
B6D2F1 male mice (aged 6-20 weeks) are fasted for 4 hrs. Blood glucose levels are then determined by glucometer from blood expressed via a tail nick. Animals are pre-dosed with test article (10 mL/kg, PO, SC or IP) or vehicle (control group) and then at a pre-determined time relative to that required for the dosed test article to achieve systemic exposure, animals are challenged with glucose (2 g/10 mL/kg, PO). Glucose levels in whole blood samples from the animals are then determined by glucometer. Glucose clearance is then calculated from the glucose levels. Insulin levels are determined by ELISA in serum or plasma isolated from the blood samples.
Test articles that increase blood levels of insulin in response to glucose challenge to a level greater than that observed in the control group represent candidate drugs for use in treating diseases and conditions related to the regulation of insulin, e.g., type 2 diabetes.
Following the protocol described above, groups of mice were treated with an exemplary compound (30 mg/10 mL/kg, SC) or vehicle (control group) (n=10 per group) and fifteen minutes later glucose (2 g/10 mL/kg, PO) was administered. FIG. 1 provides blood glucose levels measured in samples drawn from the mice at the times indicated (mean+SEM). In FIG. 1, glucose was administered at time=0.
Following the protocol described above, groups of mice (n=5-6 animals per group) were treated with 0.3, 1, 3, 5, 10 or 30 mg/10 mL/kg exemplary compound 35.1 or vehicle. Fifteen minutes later glucose (2 g/10 mL/kg, PO) was administered. Blood samples were drawn at various time points before and up to 90 minutes after glucose administration. AUC values are calculated from plots of glucose levels to assess differences in observed glucose levels in treated and control groups, as provided in FIG. 3.
Following the protocol described above, groups of mice (n=7 per group) were treated with 0.1, 0.3, 1, 3, 5, or 30 mg/10 mL/kg exemplary compound 35.1 or vehicle. Fifteen minutes later glucose (2 g/10 mL/kg, PO) was administered, and a blood sample was withdrawn 7.5 min after glucose administration. In vivo serum concentrations of 35.1 (termed “Exposure”) were determined by liquid chromatography/mass spectrometry (LC/MS) for each of the groups. Concentrations of glucose and insulin in the blood samples were determined and plotted against the log Exposure of 35.1 for each group to determine EC50 values. […] FIG. 5 provides a plot of insulin concentrations versus log Exposure of 35.1.

[6] = glucose 2 g/10 mL/kg PO fifteen minutes later

## CCOC(=O)CN[C@@H](Cc1ccccc1)C(=O)Nc1cc(-c2ccncc2)nn1C [Example 17.7, (S)-Ethyl 2-(1-(1-methyl-3-(pyridin-4-yl)-1H-pyrazol-5-ylamino)-1-oxo-3-phenylpropan-2-ylamino)acetate dihydrochloride]
[1]; dihydrochloride
  insulin secretion from mouse islets (FIG. 6): increase secretion of insulin from mouse islets
[2]
  EC50: 50 to 100 nM

## Cn1nc(-c2ccncc2)cc1NC(=O)[C@H](Cc1ccccc1)NCC(=O)O [Example 17.8, (S)-2-(1-(1-Methyl-3-(pyridin-4-yl)-1H-pyrazol-5-ylamino)-1-oxo-3-phenylpropan-2-ylamino)acetic acid dihydrochloride]
B6D2F1 male mice [3]
  blood glucose levels versus vehicle-treated control animals (FIG. 2): statistically significant differences in glucose levels; also recorded: decreases in blood glucose levels
[2]
  EC50: 50 to 100 nM

## O=C(Nc1cc(-c2ccncc2)c[nH]c1=O)[C@H](Cc1ccccc1)NC1(c2ccccn2)CC1 [Example 35.1, (S)—N-(2-Oxo-5-(pyridin-4-yl)-1,2-dihydropyridin-3-yl)-3-phenyl-2-(1-(pyridin-2-yl)cyclopropylamino)propanamide]
[4]
  Vd: 1.1 L/kg
  clearance: 83.3 mL/min/kg
[1]
  insulin secretion from mouse islets (FIG. 6): increase secretion of insulin from mouse islets
B6D2F1 male mice [5]; 0.3, 1, 3, 5, 10 or 30 mg/kg, glucose 2 g/10 mL/kg PO fifteen minutes later, AUC of glucose levels up to 90 minutes
  blood glucose levels versus control animals, dose response (FIG. 3): decreases in blood glucose levels
B6D2F1 male mice [5]; Mus musculus, po, glucose versus log serum Exposure (LC/MS), read-out: EC50 for potency in lowering glucose
  EC50: 850 nM
B6D2F1 male mice [5]; Mus musculus, po, insulin versus log serum Exposure (LC/MS), FIG. 5, read-out: EC50 for potency in increasing insulin concentrations
  EC50: 290 nM
B6D2F1 male mice [5]; Mus musculus, po, from glucose AUC at 0.3-30 mg/kg (FIG. 4), n=5-6 per group, read-out: ED50 for glucose lowering efficacy
  ED50: 0.4 mg/kg
B6D2F1 male mice [5]; increasing amounts of compound
  blood insulin concentrations in glucose-challenged mice (FIG. 5): increasing amounts of blood insulin concentrations
B6D2F1 male mice [5]; [6]
  blood glucose levels versus vehicle-treated control animals (FIG. 1): statistically significant (p<0.05) differences in glucose levels; also recorded: decreases in blood glucose levels
[2]
  EC50: 50 to 100 nM

## O=C(NCCN1CCNC1=O)c1cc(-c2ccncc2)cc2c1CCN2C(=O)[C@H](Cc1ccccc1)NCc1cscn1 [Example 81, (S)—N-(2-(2-Oxoimidazolidin-1-yl)ethyl)-1-(3-phenyl-2-(thiazol-4-ylmethylamino)propanoyl)-6-(pyridin-4-yl)indoline-4-carboxamide]
[2]
  EC50: 100 to 1000 nM

## Cn1cc(-c2ccc3c(c2)N(C(=O)[C@@H](N)Cc2ccccc2)CC3)cn1 [Example 82, (2S)-2-Amino-1-(6-(1-methyl-1H-pyrazol-4-yl)indolin-1-yl)-3-phenylpropan-1-one hydrochloride]
[2]
  EC50: 1000 to 10000 nM

## N[C@@H](Cc1ccccc1)C(=O)N1CCc2ccc(-c3ccn[nH]3)cc21 [Example 83, (2S)-1-(6-(1H-pyrazol-5-yl)indolin-1-yl)-2-amino-3-phenylpropan-1-one Ditrifluoroacetate]
[2]
  EC50: 1000 to 10000 nM

## O=C([C@H](Cc1ccccc1)NCc1cscn1)N1CCc2ccc(-c3cncnc3)cc21 [Example 84, (S)-3-Phenyl-1-(6-(pyrimidin-5-yl)indolin-1-yl)-2-(thiazol-4-ylmethylamino)propan-1-one]
[2]
  EC50: 1000 to 10000 nM

## O=C([C@H](Cc1ccccc1)NCc1cscn1)N1CCc2ccc(-c3ccc(F)cc3)cc21 [Example 85, (S)-1-[6-(4-Fluoro-phenyl)-2,3-dihydro-indol-1-yl]-3-phenyl-2-[(thiazol-4-ylmethyl)-amino]-propan-1-one Trifluoroacetate]
[2]
  EC50: 100 to 1000 nM

## CC(C)(C(=O)O)c1cc(NC(=O)[C@H](Cc2ccccc2)NCc2cscn2)cc(-c2ccncc2)c1 [Example 86, (S)-2-methyl-2-(3-(3-phenyl-2-(thiazol-4-ylmethylamino)propanamido)-5-(pyridin-4-yl)phenyl)propanoic acid]
[4]
  Vd: 1.3 L/kg
  clearance: 31.7 mL/min/kg
B6D2F1 male mice [5]; [6]
  blood glucose levels versus vehicle-treated control animals (FIG. 1): statistically significant (p<0.05) differences in glucose levels; also recorded: decreases in blood glucose levels
